# How the values were obtained:
# [1] = target: T1, human Menin and N-terminal portion of human MLL (amino acids 4-43) (Homo sapiens, UniProt O00255); assay: Menin-MLL competition assay (HTRF); format: binding; conditions: 1 hr incubation
# T1 construct: H-FL-Menin diluted to 4 nM in assay buffer
# T1 sequence (O00255 1-610): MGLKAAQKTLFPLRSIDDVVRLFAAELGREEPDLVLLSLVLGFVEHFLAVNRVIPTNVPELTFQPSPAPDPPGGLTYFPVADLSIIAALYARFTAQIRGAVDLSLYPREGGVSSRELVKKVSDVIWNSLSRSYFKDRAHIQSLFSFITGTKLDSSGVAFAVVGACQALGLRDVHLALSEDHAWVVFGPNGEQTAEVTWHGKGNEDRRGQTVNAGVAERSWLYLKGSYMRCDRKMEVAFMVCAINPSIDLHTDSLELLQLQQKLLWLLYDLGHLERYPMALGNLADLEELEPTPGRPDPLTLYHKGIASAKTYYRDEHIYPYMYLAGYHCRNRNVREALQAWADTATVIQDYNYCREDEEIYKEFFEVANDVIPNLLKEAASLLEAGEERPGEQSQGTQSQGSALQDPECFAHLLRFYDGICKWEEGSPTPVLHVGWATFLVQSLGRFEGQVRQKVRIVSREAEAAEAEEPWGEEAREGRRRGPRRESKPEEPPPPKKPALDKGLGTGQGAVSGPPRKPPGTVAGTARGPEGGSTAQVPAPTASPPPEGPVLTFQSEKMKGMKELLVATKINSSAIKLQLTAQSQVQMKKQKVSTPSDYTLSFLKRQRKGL
# Text: Menin-MLL is a competition assay between human Menin and N-terminal portion of human MLL representing amino acids 4-43 of the protein. The interaction between Menin and MLL peptide was monitored by HTRF employing Terbium labeled anti-His6 antibody directed to the N-terminal His6-tag on recombinant Menin and FITC group covalently attached to the MLL peptide. The N-terminal fragment of MLL, retained in all MLL fusion proteins, is involved in the interactions with Menin, and this protein-protein interaction is critical for the MLL fusion proteins mediated leukemogenic transformations.
# For IC50 determination test compounds were prepared as 10 mM DMSO stock solutions. Considering DMSO as the vehicle in the assay system. Lower sub-stocks of 50 μM were prepared from the 10 mM stock solution. To test the compounds in assay, 3.16-fold serial dilutions are made in 100% DMSO. Mid-stock of 50×compounds (50 μM) were serially diluted (3.16 fold) in 100% DMSO in Polypropylene plate. In assay plate 1 micro-litre of the previously prepared compound dilution was stamped. H-FL-Menin diluted to 4 nM in assay buffer (50 mM Tris-HCl, pH 7.4, 50 mM NaCl, freshly prepared 1 mM DTT, 0.01% BSA, 0.005% Triton X-100) was pre-incubated with 8 nM anti-His6-Tb for 30 min at room temperature. FITC-MLL-4-43 was diluted to 2 nM in assay buffer and 25 μL was dispensed into each well of the assay plate followed by addition of 25 μl of pre-incubated H-FL-Menin and anti-His6-Tb mixture. Final concentration H-FL-Menin diluted to 1 nM in assay plate with 2 nM anti-His6-Tb and 1 nM FITC-MLL-4-43. After 1 hr incubation at room temperature, the HTRF signal was measured on the Spark multi-label plate reader. Resulting data were captured as a ratio of RFU520/RFU485×1000. The max values were obtained from 0% inhibition in presence of 2% DMSO and the min. values were 100% inhibition in presence of 1 μM reference compound.
# hERG = hERG (Homo sapiens, UniProt Q12809); assay: Patch clamp assay (hERG tail currents, whole-cell)
# Chain of hERG (Q12809 whole entry): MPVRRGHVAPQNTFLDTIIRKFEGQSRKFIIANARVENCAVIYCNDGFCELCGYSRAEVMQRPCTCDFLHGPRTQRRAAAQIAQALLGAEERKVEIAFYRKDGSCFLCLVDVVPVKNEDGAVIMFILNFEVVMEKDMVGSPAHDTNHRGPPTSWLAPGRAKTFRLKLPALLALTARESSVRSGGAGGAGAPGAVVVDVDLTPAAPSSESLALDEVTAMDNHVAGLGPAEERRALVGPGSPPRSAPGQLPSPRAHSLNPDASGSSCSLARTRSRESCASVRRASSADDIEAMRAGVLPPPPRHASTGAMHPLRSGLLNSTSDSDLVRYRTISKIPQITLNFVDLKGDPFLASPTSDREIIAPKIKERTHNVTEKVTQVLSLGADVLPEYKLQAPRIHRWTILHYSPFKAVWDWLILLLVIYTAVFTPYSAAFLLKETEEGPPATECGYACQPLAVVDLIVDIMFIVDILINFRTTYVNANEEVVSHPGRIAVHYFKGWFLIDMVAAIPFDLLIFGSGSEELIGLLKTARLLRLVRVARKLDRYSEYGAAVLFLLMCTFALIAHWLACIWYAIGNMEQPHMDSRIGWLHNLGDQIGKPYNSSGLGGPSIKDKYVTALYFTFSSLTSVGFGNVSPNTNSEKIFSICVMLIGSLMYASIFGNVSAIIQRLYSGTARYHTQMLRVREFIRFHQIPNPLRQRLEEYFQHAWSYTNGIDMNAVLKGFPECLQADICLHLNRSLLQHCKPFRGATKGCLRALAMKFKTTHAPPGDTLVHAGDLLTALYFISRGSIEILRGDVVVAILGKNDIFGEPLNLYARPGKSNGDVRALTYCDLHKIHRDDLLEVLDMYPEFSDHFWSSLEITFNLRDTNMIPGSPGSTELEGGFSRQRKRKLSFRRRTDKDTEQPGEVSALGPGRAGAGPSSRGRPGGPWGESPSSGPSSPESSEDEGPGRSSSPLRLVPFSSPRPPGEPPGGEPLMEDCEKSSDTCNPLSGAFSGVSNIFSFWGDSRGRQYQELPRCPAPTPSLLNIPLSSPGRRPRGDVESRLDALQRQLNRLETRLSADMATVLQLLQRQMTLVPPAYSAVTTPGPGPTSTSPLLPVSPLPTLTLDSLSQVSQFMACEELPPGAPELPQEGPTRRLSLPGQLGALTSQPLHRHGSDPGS
SMILES,IC50 [1],hERG % Remaining (hERG; 10 μM compound),hERG % Remaining (hERG; 30 μM compound)
"CC(C)N(C(=O)c1cc(F)ccc1Oc1cncnc1N1CC2(CCN(C[C@@H]3CC[C@@H](NS(=O)(=O)C4CC4)CO3)CC2)C1)C1CC1 [Example 21, 2-((4-(7-(((2S,5R)-5-(Cyclopropanesulfonamido)tetrahydro-2H-pyran-2-yl)methyl)-2,7-diazaspiro[3.5]nonan-2-yl)pyrimidin-5-yl)oxy)-N-cyclopropyl-5-fluoro-N-isopropylbenzamide]",< 100 nM,++ (233% and ≤66%),+ (<33%)
"CC(C)N(C(=O)c1cc(F)ccc1Oc1cncnc1N1CC2(CCN(C[C@@H]3CC[C@@H](NS(=O)(=O)C4COC4)CO3)CC2)C1)C(C)C [Example 16, 5-Fluoro-N,N-diisopropyl-2-((4-(7-(((2S,5R)-5-(oxetane-3-sulfonamido)tetrahydro-2H-pyran-2-yl)methyl)-2,7-diazaspiro[3.5]nonan-2-yl)pyrimidin-5-yl)oxy)benzamide]",< 100 nM,+++ (≥66%),+++ (≥66%)
"CCS(=O)(=O)N[C@@H]1CC[C@@H](CN2CCC3(CC2)CN(c2ncncc2Oc2ccc(F)cc2C(=O)N(C(C)C)C2CC(F)(F)C2)C3)OC1 [Example 44, N-(3,3-Difluorocyclobutyl)-2-((4-(7-(((2S,5R)-5-(ethylsulfonamido)tetrahydro-2H-pyran-2-yl)methyl)-2,7-diazaspiro[3.5]nonan-2-yl)pyrimidin-5-yl)oxy)-5-fluoro-N-isopropylbenzamide]",< 100 nM,+++ (≥66%),++ (233% and ≤66%)
"CCN(C(=O)c1cc(F)ccc1Oc1cncnc1N1CC2(CCN(C[C@@H]3CC[C@@H](NS(C)(=O)=O)CO3)CC2)C1)C(C)C [Example 1, N-Ethyl-5-fluoro-N-isopropyl-2-((4-(7-(((2S,5R)-5-(methylsulfonamido)tetrahydro-2H-pyran-2-yl)methyl)-2,7-diazaspiro[3.5]nonan-2-yl)pyrimidin-5-yl)oxy)benzamide]",< 100 nM,+++ (≥66%),++ (233% and ≤66%)
"CCN(C(=O)c1cc(F)ccc1Oc1cncnc1N1CC2(CCN(C[C@@H]3CC[C@@H](NS(=O)(=O)C4CC4)CO3)CC2)C1)C(C)C [Example 4, 2-((4-(7-(((2S,5R)-5-(Cyclopropanesulfonamido)tetrahydro-2H-pyran-2-yl)methyl)-2,7-diazaspiro[3.5]nonan-2-yl)pyrimidin-5-yl)oxy)-N-ethyl-5-fluoro-N-isopropylbenzamide]",< 100 nM,+++ (≥66%),+++ (≥66%)
"CCS(=O)(=O)N[C@@H]1CC[C@@H](CN2CCC3(CC2)CN(c2ncncc2Oc2ccc(F)cc2C(=O)N2[C@H](C)COC[C@@H]2C)C3)OC1 [Example 24, N-((3R,6S)-6-((2-(5-(2-((3S,5R)-3,5-dimethylmorpholine-4-carbonyl)-4-fluorophenoxy)pyrimidin-4-yl)-2,7-diazaspiro[3.5]nonan-7-yl)methyl)tetrahydro-2H-pyran-3-yl)ethanesulfonamide]",< 100 nM,–,–
"CC(C)N(C(=O)c1cc(F)ccc1Oc1cncnc1N1CC2(CCN(C[C@@H]3CC[C@@H](NS(=O)(=O)C(C)C)CO3)CC2)C1)C1CC1 [Example 20, N-Cyclopropyl-5-fluoro-N-isopropyl-2-((4-(7-(((2S,5R)-5-((1-methylethyl)sulfonamido)tetrahydro-2H-pyran-2-yl)methyl)-2,7-diazaspiro[3.5]nonan-2-yl)pyrimidin-5-yl)oxy)benzamide]",< 100 nM,–,–
"CCS(=O)(=O)N[C@@H]1CC[C@@H](CN2CCC3(CC2)CN(c2ncncc2Oc2ccc(F)cc2C(=O)N2[C@H](C)CCC[C@@H]2C)C3)OC1 [Example 36, N-((3R,6S)-6-((2-(5-(2-((2S,6R)-2,6-Dimethylpiperidine-1-carbonyl)-4-fluorophenoxy)pyrimidin-4-yl)-2,7-diazaspiro[3.5]nonan-7-yl)methyl)tetrahydro-2H-pyran-3-yl)ethanesulfonamide]",< 100 nM,–,–
"CCS(=O)(=O)N[C@@H]1CC[C@@H](CN2CCC3(CC2)CN(c2ncncc2Oc2ccc(F)cc2C(=O)N2[C@H](C)COC[C@H]2C)C3)OC1 [Example 29, N-((3R,6S)-6-((2-(5-(2-((3R,5R)-3,5-Dimethylmorpholine-4-carbonyl)-4-fluorophenoxy)pyrimidin-4-yl)-2,7-diazaspiro[3.5]nonan-7-yl)methyl)tetrahydro-2H-pyran-3-yl)ethanesulfonamide]",< 100 nM,–,–
"CCN(C(=O)c1cc(F)ccc1Oc1cncnc1N1CC2(CCN(C[C@@H]3CC[C@@H](NS(=O)(=O)C(C)C)CO3)CC2)C1)C(C)C [Example 3, N-Ethyl-5-fluoro-N-isopropyl-2-((4-(7-(((2S,5R)-5-((1-methylethyl)sulfonamido)tetrahydro-2H-pyran-2-yl)methyl)-2,7-diazaspiro[3.5]nonan-2-yl)pyrimidin-5-yl)oxy)benzamide]",< 100 nM,–,–
"CCS(=O)(=O)N[C@@H]1CC[C@@H](CN2CCC3(CC2)CN(c2ncncc2Oc2ccc(F)cc2C(=O)N(C(C)C)[C@@H]2CCOC2)C3)OC1 [Example 46, 2-((4-(7-(((2S,5R)-5-(Ethylsulfonamido)tetrahydro-2H-pyran-2-yl)methyl)-2,7-diazaspiro[3.5]nonan-2-yl)pyrimidin-5-yl)oxy)-5-fluoro-N-isopropyl-N-((R)-tetrahydrofuran-3-yl)benzamide]",< 100 nM,–,–
"CCN(C(=O)c1cc(F)ccc1Oc1cncnc1N1CC2(CCN(C[C@@H]3CC[C@@H](NS(=O)(=O)CC4CC4)CO3)CC2)C1)C(C)C [Example 7, 2-((4-(7-(((2S,5R)-5-((Cyclopropylmethyl)sulfonamido)tetrahydro-2H-pyran-2-yl)methyl)-2,7-diazaspiro[3.5]nonan-2-yl)pyrimidin-5-yl)oxy)-N-ethyl-5-fluoro-N-isopropylbenzamide]",< 100 nM,–,–
"CCNC(=O)N[C@@H]1CC[C@@H](CN2CCC3(CC2)CN(c2ncncc2Oc2ccc(F)cc2C(=O)N(CC)C(C)C)C3)OC1 [Example 39, N-Ethyl-2-((4-(7-(((2S,5R)-5-(3-ethylureido)tetrahydro-2H-pyran-2-yl)methyl)-2,7-diazaspiro[3.5]nonan-2-yl)pyrimidin-5-yl)oxy)-5-fluoro-N-isopropylbenzamide]",< 100 nM,–,–
"COCCN(C(=O)c1cc(F)ccc1Oc1cncnc1N1CC2(CCN(C[C@@H]3CC[C@@H](NS(=O)(=O)C4CC4)CO3)CC2)C1)C(C)C [Example 51, 2-((4-(7-(((2S,5R)-5-(Cyclopropanesulfonamido)tetrahydro-2H-pyran-2-yl)methyl)-2,7-diazaspiro[3.5]nonan-2-yl)pyrimidin-5-yl)oxy)-5-fluoro-N-isopropyl-N-(2-methoxyethyl)benzamide]",< 100 nM,–,–
"CC(C)N(C(=O)c1cc(F)ccc1Oc1cncnc1N1CC2(CCN(C[C@@H]3CC[C@@H](NS(=O)(=O)C4COC4)CO3)CC2)C1)C1CC1 [Example 22, N-Cyclopropyl-5-fluoro-N-isopropyl-2-((4-(7-(((2S,5R)-5-(oxetane-3-sulfonamido)tetrahydro-2H-pyran-2-yl)methyl)-2,7-diazaspiro[3.5]nonan-2-yl)pyrimidin-5-yl)oxy)benzamide]",< 100 nM,–,–
"CCCS(=O)(=O)N[C@@H]1CC[C@@H](CN2CCC3(CC2)CN(c2ncncc2Oc2ccc(F)cc2C(=O)N(CC)C(C)C)C3)OC1 [Example 9, N-Ethyl-5-fluoro-N-isopropyl-2-((4-(7-(((2S,5R)-5-(propylsulfonamido)tetrahydro-2H-pyran-2-yl)methyl)-2,7-diazaspiro[3.5]nonan-2-yl)pyrimidin-5-yl)oxy)benzamide]",< 100 nM,–,–
